According to patent US10081629B2, “Amide derivatives and pharmaceutically acceptable salts thereof, preparation method thereof and medicinal application thereof” (Shanghai Hengrui Pharmaceutical Co., Ltd., priority 2014, dated 2018):

What was measured:
human mPGES1 = human mPGES1 (Homo sapiens (Human), UniProt O14684); experiment: Inhibition activity for human mPGES1 (enzyme assay, PGE2 HTRF); assay type: biochemical; settings: membrane protein from HEK-293 F transfected with human mPGES1
Method: The method described here is used for determining the inhibition activity of the present compounds for human mPGES1.
• 1. PGE2 Assay kit (Cisbio, #62P2APEB) • 2. Prostaglandin H2 (Sigma, #P7867-1MG) • 3. FlexStation3 microplate reader. II. Experimental Procedure • 1. Obtaining the membrane proteins of mPGES1 enzyme
The cell density of HEK-293 F was grown to 6×10^5 per milliliter and was transferred with the plasmid containing human mPGES1 gene by transfection reagent PEI the next day. The cells were continuously cultured for 72 hours at 37° C. with shaking. After centrifuging at 1100 g for 5 minutes, the cells were harvested. After ultrasonication in an ice bath and centrifugation at 5000 g for 10 minutes, the supernatant was obtained. The supernatant was centrifuged at 100000 g for 1 hour to obtain a precipitate. The precipitate was resuspended with storage buffer containing 10% glycerinum, subpackaged and frozen rapidly under liquid nitrogen, and stored at −80° C. • 2. mPGES1 enzyme assay
mPGES1 was diluted with assay buffer and added into plate at 49 μL/well supplemented with 1 μL of compound (the final concentration of each compound at seven gradient concentrations was 10000 nM, 1000 nM, 100 nM, 10 nM, 1 nM, 0.1 nM and 0.01 nM). […] Then, each well was added with 53.8 μL of 6 mg/mL SnCl2 to quench the reaction. The sample was diluted with dilute buffer at 1:400. 10 μl of diluted sample, 5 μL PGE2-d2 and 5 μL anti-PGE2 Cryptate were added to a black 384-well plate, and incubated at 4° C. overnight. HTRF was determined using Flexstation, and the IC50 of the compounds was obtained by data processing software.
The inhibition activity of the present compounds on mPGES1 was tested by the assay described above.

[1] = tested on: secretion of PGE2 by A549 cells stimulated with IL-1β; experiment: Inhibition of the secretion of PGE2 by A549 cells stimulated with IL-1β; assay type: cell-based; settings: IL-1β 0.2 ng/mL, 24 hours
Description: The method described here was used for determining the inhibition activity of the present compounds on the secretion of PGE2 by A549 cells stimulated with IL-1β.
• 1. PGE2 Assay kit (Cisbio, #62P2APEB) • 2. IL-1β (Peprotech, # AF-200-01B) • 3. Cell line: A549 (ATCC: CCL-185) • 4. FlexStation3 microplate reader. II. Experimental Procedure
On the first day, A549 cells were inoculated in a 96-well plate at 40000/well. On the second day, the culture medium in the 96-well plate was removed and then added with 90 μL of compound diluted with culture medium (the concentration of each compound at seven gradient concentrations was 11111 nM, […], 1.11 nM, 0.11 nM and 0.011 nM). The cells were incubated for 30 minutes at 37° C. in an incubator, and then added with IL-1β to a final concentration of 0.2 ng/mL. Then, the cells were incubated for another 24 hours at 37° C. On the third day, 10 μl of supernatant, 5 μL of PGE2-d2 and 5 μL of anti-PGE2 Cryptate were added into a black 384-well plate, and then incubated at 4° C. overnight. HTRF was determined using Flexstation, and the IC50 of the compounds was obtained by data processing software.
The inhibition activity of the present compounds on the secretion of PGE2 by A549 cells stimulated with IL-1β was determined by the assay described above.

Sequence of human mPGES1 (O14684 whole entry): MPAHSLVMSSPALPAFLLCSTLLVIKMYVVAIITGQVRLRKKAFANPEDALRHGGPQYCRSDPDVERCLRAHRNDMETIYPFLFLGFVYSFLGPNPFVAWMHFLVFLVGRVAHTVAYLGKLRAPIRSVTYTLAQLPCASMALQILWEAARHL

Row | SMILES | IC50 (human mPGES1) [µM] | IC50 ([1]; Homo sapiens, A549) [µM] | IC50 [1] [µM]
1 | CC(C)C(=O)NCc1cnc(C(F)F)c(C(=O)Nc2ccc3c(c2)cc(-c2ccc(C(F)(F)F)cc2)n3C)c1 [Example 9, 2-(difluoromethyl)-N-(1-methyl-2-(4-(trifluoromethyl)phenyl)-1H-indol-5-yl)5-((2-methylpropanoylamino)methyl)-nicotinamide] | 0.0156 | 0.0118 | 
2 | CC(C)(C)C(=O)NCc1ccc(Cl)c(C(=O)Nc2ccc3nn(-c4ccc(Cl)cc4)cc3c2)c1 [Example 16, 2-Chloro-N-(2-(4-chlorophenyl)-2H-indazol-5-yl)-5-((2,2-dimethylpropanoylamino)methyl)benzamide] | 0.00931 | 0.0262 | 
3 | CC(C)(C)C(=O)NCc1ccc(Cl)c(C(=O)Nc2ccc3oc(-c4ccc(C(F)(F)F)cc4)nc3c2)c1 [Example 22, 2-Chloro-5-((2,2-dimethylpropanoylamino)methyl)-N-(2-(4-(trifluoromethyl)phenyl)benzo[d]oxazol-5-yl)benzamide] | 0.00669 | 0.0388 | 
4 | CCn1c(-c2ccc(Cl)cc2)cc2cc(NC(=O)c3cc(CNC(=O)C(C)C)cnc3C(F)F)ccc21 [Example 10, 2-(Difluoromethyl)-N-(1-ethyl-2-(4-chlorophenyl)-1H-indol-5-yl)-5-((2-methylpropanoylamino)methyl)nicotinamide] | 0.0112 | 0.0123 | 
5 | CC(C)(F)C(=O)NCc1cnc(C(F)F)c(C(=O)Nc2ccc3c(c2)CN(c2ccc(C(F)(F)F)cc2)C3)c1 [Example 26, 2-(Difluoromethyl)-5-(((2-fluoro-2-methyl-propanoyl)amino)methyl)-N-(2-(4-(trifluoromethyl)phenyl)isoindolin-5-yl)nicotinamide] | 0.00338 | 0.0461 | 
6 | CC1(C(=O)NCc2cnc(C(F)F)c(C(=O)Nc3ccc4oc(-c5ccc(C(F)(F)F)cc5)nc4c3)c2)CC1 [Example 43, 2-(Difluoromethyl)-5-(((1-methylcyclopropanecarbonyl)amino)methyl)-N-(2-(4-(trifluoromethyl)phenyl)benzo[d]oxazol-5-yl)nicotinamide] | 0.016 | 0.0582 | 
7 | CC(C)C(=O)NCc1cnc(C(F)F)c(C(=O)Nc2ccc3oc(-c4ccc(Cl)cc4)nc3c2)c1 [Example 45, N-(2-(4-Chlorophenyl)benzo[d]oxazol-5-yl)-2-(difluoromethyl)-5-((2-methylpropanoylamino)methyl)nicotinamide] | 0.0494 | 0.0259 | 
8 | Cn1c(-c2ccc(Cl)cc2)cc2cc(NC(=O)c3cc(CNC(=O)C(C)(C)F)cnc3C(F)F)ccc21 [Example 18, N-(2-(4-Chlorophenyl)-1-methyl-1H-indol-5-yl)-2-(difluoromethyl)-5-(((2-fluoro-2-methyl-propanoyl)amino)methyl)nicotinamide] | 0.00515 |  | 0.0172
9 | CC(C)C(=O)NCc1cnc(C(F)F)c(C(=O)Nc2ccc3nc(-c4ccc(C(F)(F)F)cc4)sc3c2)c1 [Example 54, 2-(Difluoromethyl)-5-((2-methylpropanoylamino)methyl)-N-(2-(4-(trifluoromethyl)phenyl)benzo[d]thiazol-6-yl)nicotinamide] | 0.0471 | 0.0585 | 
10 | CCn1cc(-c2ccc(F)cc2)c2cc(NC(=O)c3cc(CNC(=O)C(C)(C)C)ccc3Br)ccc21 [Example 6, 2-Bromo-N-(1-ethyl-3-(4-fluorophenyl)-1H-indol-5-yl)-5-((2,2-dimethylpropanoylamino)methyl)-benzamide] |  | 0.0681 | 
11 | CC1(C(=O)NCc2ccc(Cl)c(C(=O)Nc3ccc4oc(-c5ccc(C(F)(F)F)cc5)nc4c3)c2)CC1 [Example 41, 2-Chloro-5-(((1-methylcyclopropanecarbonyl)amino)methyl)-N-(2-(4-(trifluoromethyl)phenyl)benzo[d]oxazol-5-yl)benzamide] | 0.0256 |  | 
12 | CC(C)(F)C(=O)NCc1cnc(C(F)F)c(C(=O)Nc2ccc3c(c2)CN(c2cccc(C(F)(F)F)c2)C3)c1 [Example 49, 2-(Difluoromethyl)-5-(((2-fluoro-2-methyl-propanoyl)amino)methyl)-N-(2-(3-(trifluoromethyl)phenyl)isoindolin-5-yl)nicotinamide] | 0.00829 | 0.024 | 
13 | CC(C)C(=O)NCc1cnc(C(F)F)c(C(=O)Nc2ccc3nn(-c4ccc(C(F)(F)F)cc4)cc3c2)c1 [Example 24, 2-(Difluoromethyl)-5-((2-methylpropanoylamino)methyl)-N-(2-(4-(trifluoromethyl)phenyl)-2H-indazol-5-yl)nicotinamide] | 0.0172 | 0.0456 | 
14 | CCn1c(-c2ccc(F)cc2)cc2cc(NC(=O)c3cc(CNC(=O)C(C)C)cnc3C(F)F)ccc21 [Example 5, 2-(Difluoromethyl)-N-(1-ethyl-2-(4-fluorophenyl)-1H-indol-5-yl)-5-((2-methylpropanoylamino)methyl)nicotinamide] | 0.022 | 0.0124 | 
15 | CC(C)C(=O)NCc1cnc(C(F)F)c(C(=O)Nc2ccc3oc(-c4ccc(C(F)(F)F)cc4)cc3c2)c1 [Example 39, 2-(Difluoromethyl)-5-((2-methylpropanoylamino)methyl)-N-(2-(4-(trifluoromethyl)phenyl)benzofuran-5-yl)nicotinamide] | 0.00368 | 0.0305 | 
16 | CCn1c(-c2ccc(Cl)cc2)cc2cc(NC(=O)c3cc(CNC(=O)C4(C)CC4)cnc3C(F)F)ccc21 [Example 42, N-(2-(4-Chlorophenyl)-1-ethyl-1H-indol-5-yl)-2-(difluoromethyl)-5-(((1-methylcyclopropanecarbonyl)amino)methyl)nicotinamide] | 0.00721 |  | 
17 | CCn1c(-c2ccc(F)cc2)cc2cc(NC(=O)c3cc(CNC(=O)C(C)(C)C)ccc3Cl)cnc21 [Example 4, 2-Chloro-N-(1-ethyl-2-(4-fluorophenyl)-1H-pyrrolo[2,3-b]pyridin-5-yl)-5-((2,2-dimethylpropanoylamino)methyl)-benzamide] |  | 0.0269 | 
18 | Cn1c(-c2ccc(Cl)cc2)nc2cc(NC(=O)c3cc(CNC(=O)C(C)(C)C)ccc3Cl)ccc21 [Example 55, 2-Chloro-N-(2-(4-chlorophenyl)-1-methyl-1H-benzo[d]imidazol-5-yl)-5-((2,2-dimethylpropanoylamino)methyl)benzamide] | 0.0298 |  | 
19 | Cn1c(-c2ccc(C(F)(F)F)cc2)cc2cc(NC(=O)c3cc(CNC(=O)C(C)(C)F)cnc3C(F)F)ccc21 [Example 15, 2-(Difluoromethyl)-5-(((2-fluoro-2-methyl-propanoyl)amino)methyl)-N-(1-methyl-2-(4-(trifluoromethyl)phenyl)-1H-indol-5-yl)nicotinamide] | 0.0234 | 0.0333 | 
20 | CC(C)(C)C(=O)NCc1ccc(Cl)c(C(=O)Nc2ccc3c(c2)C(=O)N(c2ccc(Cl)cc2)C3)c1 [Example 57, 2-Chloro-N-(2-(4-chlorophenyl)-3-oxo-isoindolin-5-yl)-5-((2,2-dimethylpropanoylamino)methyl)benzamide] | 0.00675 | 0.00622 | 
21 | CC(C)(F)C(=O)NCc1cnc(C(F)F)c(C(=O)Nc2ccc3oc(-c4cccc(C(F)(F)F)c4)nc3c2)c1 [Example 56, 2-(Difluoromethyl)-5-(((2-fluoro-2-methyl-propanoyl)amino)methyl)-N-(2-(3-(trifluoromethyl)phenyl)benzo[d]oxazol-5-yl)nicotinamide] | 0.00774 | 0.0275 | 
22 | CCn1c(-c2ccc(F)cc2)cc2cc(NC(=O)c3cc(CNC(=O)C(C)(C)C)ccc3Br)ccc21 [Example 7, 2-Bromo-N-(1-ethyl-2-(4-fluorophenyl)-1H-indol-5-yl)5-((2,2-dimethylpropanoylamino)methyl)-benzamide] |  | 0.0104 | 
23 | CCn1c(-c2ccc(Cl)cc2)nc2cc(NC(=O)c3cc(CNC(=O)C(C)(C)C)ccc3Cl)ccc21 [Example 52, 2-Chloro-N-(2-(4-chlorophenyl)-1-ethyl-1H-benzo[d]imidazol-5-yl)-5-((2,2-dimethylpropanoylamino)methyl)benzamide] |  | 0.0552 | 
